Reference: patent US11040984B2, “Quinazoline compound for EGFR inhibition” (MEDSHINE DISCOVERY INC., priority 2016, dated 2021)
Counter-ions that a name gives are not always drawn.

How the values were obtained:
PC-9 (Δ19del) cells = experiment: Anti-PC-9 cell proliferation (Cell-Titer Glo, 72 hours); type: cell-based; conditions: Homo sapiens, PC-9 cells, read-out: Anti-PC-9 (Δ19del) cell proliferative activity IC50
Procedure: RPMI 1640 medium, FBS fetal bovine serum and trypsin-EDTA were purchased from Giboco. DPBS was purchased from Corning, penicillin/streptomycin solution from Hyclone, Cell-Titer Glo reagent from Promega (1 kit, Cat. No. G7571). PC-9 was built by WuXi itself. Plate reader: Envision (Perkin Elmer).
(§1) 45 μL Culture media was added to columns 1, 2, 24 of a 384-well plate, repectively. The cell suspension was separated by Multi-drop, 45 μL (1000 cells) per well, which was placed and cultured in an incubator overnight. A compound was added to the source plate according to the requirement of Echo liquid-separation. The compound in the source plate was added to the interplate and diluted to an intermediate concentration, then the compound in the source plate and the interplate was added to the cell plate, and the cells were further cultured in the incubator for 72 hours. After 72 hours, Cell-Titer Glo reagent and cells were taken out and equilibrated at room temperature for 30 minutes. 25 μL Cell-Titer Glo reagent was separated into the cells in 384-well plate by Multi-drop, shaken at medium speed for 3 minutes, centrifuged at 1000 rpm for 2 minutes, and kept for 10 minutes. Envision was used to read the plate (Luminescence).

A431 cells = experiment: Anti-A431 cell proliferation; type: cell-based; conditions: Homo sapiens, A-431, read-out: Anti-A431 cell proliferative activity IC50
Procedure: as §1

EGFR [d746-750] = EGFR [d746-750] (Homo sapiens (Human), UniProt P00533, DEL746-750); experiment: Kinase assay (HTRF KinEASE TK), EGFR exon 19 deletion enzyme; type: biochemical
Source text: (§2) Detection of inhibitory effects of compounds on enzymatic activities of EGFR WT, EGFR [L858R] and EGFR [d746-750]
(§3) EGFR WT (Invitrogen, Cat. No PR7295B), EGFR [L858R] (Invitrogen, Cat. No PR7447A), EGFR [d746-750](Invitrogen, Cat. No PV6179), ATP (Sigma, Cat. No. A7699-1G), DMSO (Sigma, Cat. No. D2650), DTT (Sigma, Cat. No. 43815), 384-well plates compound dilution plates (Greiner, Cat. No. 781280), 384-well plates_test plates (Perkin Elmer, Cat. No. 6007299), HTRF KinEASE TK Kit (Cisbio, Cat. No. 62TKOPEB), MgCl2 (Sigma, Cat. No. M1028), Orthovanadate (Sigma, Cat. No. S6508), BSA (Sigma, Cat. No. A7030), HEPES (Life technology, Cat. No. 11344-041)
(§4) The final test concentrations of the test compounds ranged from 10 μM to 0.17 nM, with serial 3-fold dilutions and 11 gradient concentrations.
(§5) Buffer formulation: a buffer consisted of 50 mM HEPES (pH 7.5), 0.01% BSA, 5 mM MgCl2, 0.1 mM Orthovanadate. After the buffer was formulated, an enzyme and a substrate were mixed with pre-diluted compounds of varying concentrations, and placed at room temperature for 15 minutes. The reaction was initiated by adding ATP and incubated at room temperature for 60 minutes (wherein negative and positive controls were set up). The 10 μL reaction system consisted of a 2.5 μL compound, a 5 μL mixture of enzyme and substrate, and 2.5 μL ATP. After the reaction was complete, antibodies were added to test, the detection was performed with Evnvision after incubation at room temperature for 60 minutes, and data were collected. Data analysis and simulation were performed using XLfit5 software.

EGFR WT = EGFR WT (Homo sapiens (Human), UniProt P00533); experiment: Kinase assay (HTRF KinEASE TK), wild-type EGFR enzyme; type: biochemical
Source text: as §2, §3, §4, §5

EGFR [L858R] = EGFR [L858R] (Homo sapiens (Human), UniProt P00533, L858R); experiment: Kinase assay (HTRF KinEASE TK), EGFR L858R enzyme; type: biochemical
Source text: as §2, §3, §4, §5

Chain of EGFR WT (P00533 25-1210): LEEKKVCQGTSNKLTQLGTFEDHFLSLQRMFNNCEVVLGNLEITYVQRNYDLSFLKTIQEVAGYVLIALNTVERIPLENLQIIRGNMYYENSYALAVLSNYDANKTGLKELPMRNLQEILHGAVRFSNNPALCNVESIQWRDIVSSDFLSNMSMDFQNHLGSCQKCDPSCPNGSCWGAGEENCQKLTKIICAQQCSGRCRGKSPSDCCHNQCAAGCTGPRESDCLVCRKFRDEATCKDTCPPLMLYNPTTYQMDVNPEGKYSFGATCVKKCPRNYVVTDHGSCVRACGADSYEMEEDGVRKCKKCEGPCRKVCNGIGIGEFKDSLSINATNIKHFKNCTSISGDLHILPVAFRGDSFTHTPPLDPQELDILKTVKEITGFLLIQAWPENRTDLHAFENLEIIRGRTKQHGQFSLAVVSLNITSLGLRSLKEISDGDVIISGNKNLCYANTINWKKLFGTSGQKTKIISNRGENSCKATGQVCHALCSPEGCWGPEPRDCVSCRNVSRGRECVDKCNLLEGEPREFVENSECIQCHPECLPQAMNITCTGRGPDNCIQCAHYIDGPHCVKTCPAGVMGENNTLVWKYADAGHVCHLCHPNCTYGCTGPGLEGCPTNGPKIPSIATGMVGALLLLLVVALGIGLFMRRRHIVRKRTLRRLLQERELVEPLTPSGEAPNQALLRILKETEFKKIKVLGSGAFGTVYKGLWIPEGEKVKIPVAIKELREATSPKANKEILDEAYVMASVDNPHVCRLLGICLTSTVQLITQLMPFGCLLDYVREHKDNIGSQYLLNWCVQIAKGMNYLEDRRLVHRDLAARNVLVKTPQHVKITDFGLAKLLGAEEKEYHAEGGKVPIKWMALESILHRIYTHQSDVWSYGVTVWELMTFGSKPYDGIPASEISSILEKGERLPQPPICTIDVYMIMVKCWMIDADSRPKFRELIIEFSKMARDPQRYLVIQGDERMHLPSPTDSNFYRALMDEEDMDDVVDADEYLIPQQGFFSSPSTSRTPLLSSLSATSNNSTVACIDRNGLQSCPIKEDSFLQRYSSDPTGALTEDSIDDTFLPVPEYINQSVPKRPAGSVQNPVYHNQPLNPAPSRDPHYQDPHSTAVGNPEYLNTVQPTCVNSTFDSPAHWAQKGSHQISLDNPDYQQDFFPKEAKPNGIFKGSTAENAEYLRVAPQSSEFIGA
Chain of EGFR [L858R] (P00533 25-1210 L858R): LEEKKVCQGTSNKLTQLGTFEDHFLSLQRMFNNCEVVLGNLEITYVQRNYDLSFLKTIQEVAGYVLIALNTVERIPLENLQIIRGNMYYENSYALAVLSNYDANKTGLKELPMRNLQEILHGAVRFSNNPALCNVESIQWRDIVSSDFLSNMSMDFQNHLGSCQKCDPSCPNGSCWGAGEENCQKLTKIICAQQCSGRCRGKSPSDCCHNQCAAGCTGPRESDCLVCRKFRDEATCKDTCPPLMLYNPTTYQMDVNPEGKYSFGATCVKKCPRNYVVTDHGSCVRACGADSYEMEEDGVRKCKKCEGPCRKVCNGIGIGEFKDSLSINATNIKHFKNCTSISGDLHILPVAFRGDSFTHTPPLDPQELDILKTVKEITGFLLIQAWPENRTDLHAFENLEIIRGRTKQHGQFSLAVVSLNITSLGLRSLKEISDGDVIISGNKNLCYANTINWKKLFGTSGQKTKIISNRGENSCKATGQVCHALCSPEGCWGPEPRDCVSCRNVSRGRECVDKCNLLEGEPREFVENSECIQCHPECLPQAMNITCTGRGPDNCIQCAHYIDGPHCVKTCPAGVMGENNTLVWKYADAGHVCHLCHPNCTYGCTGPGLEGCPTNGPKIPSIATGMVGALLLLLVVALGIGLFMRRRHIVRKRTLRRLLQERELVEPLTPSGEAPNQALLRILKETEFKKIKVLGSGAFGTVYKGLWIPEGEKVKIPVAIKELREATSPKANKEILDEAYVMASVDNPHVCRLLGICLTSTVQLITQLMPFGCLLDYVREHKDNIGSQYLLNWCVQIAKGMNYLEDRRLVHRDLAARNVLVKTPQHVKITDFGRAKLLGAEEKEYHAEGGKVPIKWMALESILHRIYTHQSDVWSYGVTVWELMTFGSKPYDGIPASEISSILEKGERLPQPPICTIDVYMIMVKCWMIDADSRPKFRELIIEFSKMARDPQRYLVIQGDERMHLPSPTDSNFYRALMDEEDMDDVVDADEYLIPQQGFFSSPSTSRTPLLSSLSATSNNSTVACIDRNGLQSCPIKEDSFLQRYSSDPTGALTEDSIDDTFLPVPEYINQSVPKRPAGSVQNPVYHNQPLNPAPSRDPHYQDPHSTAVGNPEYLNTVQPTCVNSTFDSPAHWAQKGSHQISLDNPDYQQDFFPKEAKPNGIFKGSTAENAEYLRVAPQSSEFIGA
Chain of EGFR [d746-750] (P00533 other isoform, or with tags, fused parts or gaps del 1-667/del 746-750 limits assumed): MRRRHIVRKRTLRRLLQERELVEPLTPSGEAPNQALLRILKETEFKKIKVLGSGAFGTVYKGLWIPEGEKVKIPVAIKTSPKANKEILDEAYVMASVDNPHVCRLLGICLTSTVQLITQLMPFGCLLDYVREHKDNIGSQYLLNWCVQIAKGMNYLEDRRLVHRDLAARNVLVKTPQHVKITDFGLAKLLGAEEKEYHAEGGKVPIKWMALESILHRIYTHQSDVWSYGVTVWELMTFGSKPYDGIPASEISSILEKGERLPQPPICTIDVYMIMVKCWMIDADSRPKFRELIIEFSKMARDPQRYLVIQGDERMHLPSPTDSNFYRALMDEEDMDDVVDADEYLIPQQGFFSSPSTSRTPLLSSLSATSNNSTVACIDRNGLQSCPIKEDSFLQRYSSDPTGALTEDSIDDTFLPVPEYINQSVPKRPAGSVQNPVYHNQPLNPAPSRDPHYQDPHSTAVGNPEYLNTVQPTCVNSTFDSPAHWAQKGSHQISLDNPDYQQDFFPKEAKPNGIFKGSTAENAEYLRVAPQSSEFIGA

COc1cc2ncnc(Oc3cccc(Cl)c3)c2cc1N1CC2(CCN(C)CC2)OC1=O [Compound 16]
IC50 (PC-9 (Δ19del) cells): 540 nM

COc1cc2ncnc(Nc3cccc(Cl)c3F)c2cc1N1C[C@H](CN(C)C)OC1=O [Compound 18]
IC50 (A431 cells): 59 nM | IC50 (EGFR [d746-750]): 0.05 nM | IC50 (PC-9 (Δ19del) cells): 12.5 nM | IC50 (EGFR WT): < 0.015 nM

COC[C@@H]1CN(c2cc3c(Nc4cccc(Cl)c4F)ncnc3cc2OC)C(=O)O1 [Compound 23]
IC50 (EGFR [d746-750]): 0.17 nM | IC50 (PC-9 (Δ19del) cells): 24 nM | IC50 (EGFR WT): 0.038 nM

CCN1CC2(C1)CN(c1cc3c(Nc4cccc(Cl)c4F)ncnc3cc1OC)C(=O)O2 [Compound 25]
IC50 (A431 cells): 64 nM | IC50 (EGFR [d746-750]): 0.069 nM | IC50 (PC-9 (Δ19del) cells): 6.76 nM | IC50 (EGFR WT): 0.022 nM

COc1cc2ncnc(Nc3cccc(Cl)c3F)c2cc1N1CC2(CN(C(C)C)C2)OC1=O [Compound 26]
IC50 (A431 cells): 98 nM | IC50 (PC-9 (Δ19del) cells): 7.2 nM

COc1cc2ncnc(Oc3cccc(Cl)c3)c2cc1N1CC2(CN(C)C2)OC1=O [Compound 27]
IC50 (PC-9 (Δ19del) cells): 84 nM

COc1cc2ncnc(Nc3cccc(Cl)c3F)c2cc1N1CC2(CN(CCF)C2)OC1=O [Compound 29]
IC50 (PC-9 (Δ19del) cells): 14.7 nM

CN1CC2(C1)CN(c1cc3c(Nc4cccc(Cl)c4F)ncnc3cc1OC(F)F)C(=O)O2 [Compound 45]
IC50 (PC-9 (Δ19del) cells): 8.86 nM

COc1cc2ncnc(Nc3ccc(F)c(Cl)c3F)c2cc1N1CC2(CN(C)C2)OC1=O [Compound 49]
IC50 (PC-9 (Δ19del) cells): 4.2 nM

COc1cc2ncnc(Nc3ccc(F)c(Cl)c3)c2cc1N1CC2(CCN(C)CC2)OC1=O [Formate of compound 2]
IC50 (EGFR [d746-750]): 16.5 nM | IC50 (PC-9 (Δ19del) cells): 165 nM | IC50 (EGFR [L858R]): 48.1 nM

COc1cc2ncnc(Nc3cccc(Cl)c3F)c2cc1N1CC2(CCN(C)CC2)OC1=O [Formate of compound 3]
IC50 (A431 cells): 96 nM | IC50 (EGFR [d746-750]): 0.02 nM | IC50 (PC-9 (Δ19del) cells): 3 nM | IC50 (EGFR [L858R]): 0.1 nM

COc1cc2ncnc(Nc3cccc(Cl)c3OC)c2cc1N1CC2(CCN(C)CC2)OC1=O [Formate of compound 4]
IC50 (EGFR [d746-750]): 55.4 nM | IC50 (PC-9 (Δ19del) cells): 396 nM | IC50 (EGFR [L858R]): 30.1 nM

COc1cc2ncnc(Nc3cccc(Cl)c3F)c2cc1N1CC2(CCN(C(C)C)CC2)OC1=O [Formate of compound 5]
IC50 (PC-9 (Δ19del) cells): 2.73 nM

COc1cc2ncnc(Nc3ccc(Cl)c(Cl)c3F)c2cc1N1CC2(CCN(C)CC2)OC1=O [Formate of compound 6]
IC50 (EGFR [d746-750]): 0.07 nM | IC50 (PC-9 (Δ19del) cells): 4.9 nM | IC50 (EGFR WT): < 0.015 nM

COc1cc2ncnc(Nc3ccc(F)c(Cl)c3F)c2cc1N1CC2(CCN(C)CC2)CC1=O [Formate of compound 10]
IC50 (A431 cells): 73 nM | IC50 (PC-9 (Δ19del) cells): 6.01 nM

CN1CCC2(CC1)CN(c1ccc3ncnc(Nc4cccc(Cl)c4F)c3c1)C(=O)O2 [Formate of compound 12]
IC50 (A431 cells): 46 nM | IC50 (EGFR [d746-750]): 0.085 nM | IC50 (PC-9 (Δ19del) cells): 9.11 nM | IC50 (EGFR WT): 0.017 nM

COc1cc2ncnc(Nc3cccc(Cl)c3F)c2cc1N1CC2(CN(C)C2)OC1=O [Formate of compound 13]
IC50 (EGFR [d746-750]): 0.052 nM | IC50 (PC-9 (Δ19del) cells): 5.34 nM | IC50 (EGFR WT): 0.016 nM

COc1cc2ncnc(Nc3cccc(Cl)c3F)c2cc1N1CC2(COC2)OC1=O [Formate of compound 15]
IC50 (PC-9 (Δ19del) cells): 23 nM

COc1cc2ncnc(Nc3cccc(Cl)c3F)c2cc1N1C(=O)OC2CN(C)CCC21 (stereo not shown) [Formate of compound 17]
IC50 (PC-9 (Δ19del) cells): 29.4 nM

COc1cc2ncnc(-n3ccc4c(Cl)cccc43)c2cc1N1CC2(CCN(C)CC2)OC1=O [Formate of compound 19]
IC50 (PC-9 (Δ19del) cells): 1280 nM

COc1cc2ncnc(Nc3cccc(Cl)c3F)c2cc1N1CC2(CCN(C)CC2C)OC1=O (stereo not shown) [Formate of compound 20]
IC50 (PC-9 (Δ19del) cells): 2.17 nM

CCC1CN(C)CCC12CN(c1cc3c(Nc4cccc(Cl)c4F)ncnc3cc1OC)C(=O)O2 (stereo not shown) [Formate of compound 21]
IC50 (PC-9 (Δ19del) cells): 2.96 nM

Cc1cc2ncnc(Nc3cccc(Cl)c3F)c2cc1N1CC2(CCN(C)CC2)OC1=O [Formate of compound 22]
IC50 (PC-9 (Δ19del) cells): 41.4 nM

COc1cc2ncnc(Nc3c(F)ccc(Cl)c3F)c2cc1N1CC2(CCN(C)CC2)OC1=O [Formate of compound 24]
IC50 (PC-9 (Δ19del) cells): 7.53 nM

COc1cc2ncnc(-c3cn(C)c4ccccc34)c2cc1N1CC2(CN(C)C2)OC1=O [Formate of compound 28]
IC50 (PC-9 (Δ19del) cells): 250 nM

CC(C)N1CC2(CN(c3ccc4ncnc(Nc5cccc(Cl)c5F)c4c3)C(=O)O2)C1 [Formate of compound 33]
IC50 (EGFR [d746-750]): 0.29 nM | IC50 (EGFR WT): 0.114 nM

COc1cc2ncnc(Nc3ccc(Cl)cc3F)c2cc1N1CC2(CN(C)C2)OC1=O [Formate of compound 46]
IC50 (PC-9 (Δ19del) cells): 29.8 nM

COc1cc2ncnc(Nc3cccc(C)c3F)c2cc1N1CC2(CN(C)C2)OC1=O [Formate of compound 48]
IC50 (PC-9 (Δ19del) cells): 8.55 nM

CCCN1CC2(C1)CN(c1cc3c(Nc4cccc(Cl)c4F)ncnc3cc1OC)C(=O)O2 [Hydrochloride of compound 30]
IC50 (A431 cells): 71 nM | IC50 (EGFR [d746-750]): 0.052 nM | IC50 (PC-9 (Δ19del) cells): 11.2 nM | IC50 (EGFR WT): 0.021 nM

COc1cc2ncnc(Nc3cccc(Cl)c3F)c2cc1N1CC2(CN(C3CC3)C2)OC1=O [Hydrochloride of compound 31]
IC50 (PC-9 (Δ19del) cells): 15.3 nM
